{"source": "patent US12274684B2", "about": "“Treatment of vasculopathy with prostacyclin and mesenchymal stem cells” (United Therapeutics Corporation, priority 2013, dated 2025)", "tested_on": "human bone marrow MSC", "assay": "Microarray gene expression analysis of MSC (Illumina Human HT12 Expression BeadChip)", "assay_type": "cell-based", "conditions": "Tre(+) 250 μg/mL, 24 h", "method": "Human bone marrow MSC were expanded and seeded into six (6) T225 flasks using standard growth medium (Table 1). At 95-99% confluency, cells were thoroughly washed with PBS. Three (3) flasks were replenished with basal media containing 250 μg/mL treprostinil, (+)Tre, and the remaining three (3) flasks were replenished with unsupplemented basal media, (−)Tre. After 24 hours of culture, representative images were captured from (+) Tre and (−) Tre cultures. Conditioned media was collected from each replicate, divided into two samples of appropriate volumes, and analyzed separately for: 1) secreted proteins (Myriad RBM InflammationMAP® 1.0) and 2) exosome RNA content. Cells were lysed directly from culture flasks, processed for total RNA isolation, and analyzed for gene expression by microarray (Illumina Human HT12 Expression BeadChip). Microarray gene expression analysis was also performed on MSC from cultures without (−) or with (+) 250 ug/mL treprostinil. Three (3) biological replicates from each condition were analyzed. Of the 77,612 sequences identified among all replicates, only 24,273 were detected above the arbitrary background of 50 counts. 2,984 RNA sequences were unique to Tre(−) cultures, while 1,781 RNA sequences were unique to Tre(+) cultures (panel A). Genes detected in both conditions were further analyzed for differential expression (panel). […] Genes that are expressed only in Tre(−) cultures (that is to say, completely turned off in the Tre(+) cultures) are shown in Table 5.", "note": "Values joined by “and” are separate entries in the source; they are usually repeats but may differ in a detail not shown here. Equal entries are not always repeated."}
{"compound": "CCCCC[C@H](O)CC[C@@H]1[C@H]2Cc3cccc(OCC(=O)O)c3C[C@H]2C[C@H]1O", "note": "[treprostinil]", "values": [{"measurement": "ASPM (NM_018136) expression, Rep 1-3", "value": "20 counts and 27 counts and 30 counts"}, {"measurement": "ATF3 (NM_001030287) expression, Rep 1-3", "value": "1001 counts and 1579 counts and 1041 counts"}, {"measurement": "ATP6V0D2 (NM_152565) expression, Rep 1-3", "value": "547 counts and 893 counts and 499 counts"}, {"measurement": "BMP6 (NM_001718) expression, Rep 1-3", "value": "1210 counts and 1581 counts and 1181 counts"}, {"measurement": "C11orf96 (NM_001145033) expression, Rep 1-3", "value": "2050 counts and 2381 counts and 1885 counts"}, {"measurement": "C13orf33 (NM_032849) expression, Rep 1-3", "value": "17304 counts and 24329 counts and 16255 counts"}, {"measurement": "CALD1 (NM_033140) expression, Rep 1-3", "value": 0, "unit": "counts"}, {"measurement": "CD55 (NM_000574) expression, Rep 1-3", "value": "7472 counts and 9108 counts and 6555 counts"}, {"measurement": "CD55 (NM_001114752) expression, Rep 1-3", "value": "2497 counts and 3119 counts and 2372 counts"}, {"measurement": "COL6A3 (NM_004369) expression, Rep 1-3", "value": "5033 counts and 4570 counts and 4303 counts"}, {"measurement": "CPA4 (NM_016352) expression, Rep 1-3", "value": "51 counts and 62 counts and 45 counts"}, {"measurement": "CXCL12 (NM_199168) expression, Rep 1-3", "value": "853 counts and 627 counts and 534 counts"}, {"measurement": "DDAH1 (NM_001134445) expression, Rep 1-3", "value": "136 counts and 155 counts and 107 counts"}, {"measurement": "DKFZp547J0510 (CDNA FLJ42650 fis, clone BRACE3027478) expression, Rep 1-3", "value": "183 counts and 135 counts and 125 counts"}, {"measurement": "DUSP1 (NM_004417) expression, Rep 1-3", "value": "825 counts and 1489 counts and 963 counts"}, {"measurement": "FAM84A (NM_145175) expression, Rep 1-3", "value": "63 counts and 40 counts and 32 counts"}, {"measurement": "GDF5 (NM_000557) expression, Rep 1-3", "value": "83 counts and 64 counts and 65 counts"}, {"measurement": "GDF15 (NM_004864) expression, Rep 1-3", "value": "11450 counts and 18978 counts and 10088 counts"}, {"measurement": "GDNF (NM_000514) expression, Rep 1-3", "value": "689 counts and 845 counts and 824 counts"}, {"measurement": "GPRC5A (NM_003979) expression, Rep 1-3", "value": "4151 counts and 5981 counts and 3920 counts"}, {"measurement": "HAS1 (NM_001523) expression, Rep 1-3, second entry", "value": "1355 counts and 730 counts and 789 counts"}, {"measurement": "HSD11B1 (NM_005525) expression, Rep 1-3", "value": "822 counts and 966 counts and 758 counts"}, {"measurement": "IDH1 (NM_005896) expression, Rep 1-3", "value": "1920 counts and 2406 counts and 1792 counts"}, {"measurement": "IER3 (NM_003897) expression, Rep 1-3", "value": "2769 counts and 3595 counts and 2558 counts"}, {"measurement": "IGFBP1 (NM_000596) expression, Rep 1-3", "value": "5468 counts and 8123 counts and 5321 counts"}, {"measurement": "IL6 (NM_000600) expression, Rep 1-3", "value": "6490 counts and 8445 counts and 5640 counts"}, {"measurement": "IL11 (NM_000641) expression, Rep 1-3", "value": "851 counts and 1237 counts and 700 counts"}, {"measurement": "ISLR (NM_005545) expression, Rep 1-3", "value": "612 counts and 543 counts and 490 counts"}, {"measurement": "KTN1 (NM_001079522) expression, Rep 1-3", "value": "531 counts and 612 counts and 596 counts"}, {"measurement": "KYNU (NM_003937) expression, Rep 1-3", "value": "867 counts and 922 counts and 797 counts"}, {"measurement": "LIPG (NM_006033) expression, Rep 1-3", "value": "1552 counts and 1946 counts and 1607 counts"}, {"measurement": "MEST (NM_177525) expression, Rep 1-3", "value": "367 counts and 268 counts and 258 counts"}, {"measurement": "METTL7A (NM_014033) expression, Rep 1-3", "value": "146 counts and 95 counts and 85 counts"}, {"measurement": "MYLK (NM_053025) expression, Rep 1-3", "value": 0, "unit": "counts"}, {"measurement": "NAP1L3 (NM_004538) expression, Rep 1-3", "value": "68 counts and 35 counts and 42 counts"}, {"measurement": "NGFR (NM_002507) expression, Rep 1-3", "value": "1217 counts and 1818 counts and 1074 counts"}, {"measurement": "NR4A2 (NM_006186) expression, Rep 1-3", "value": "635 counts and 810 counts and 592 counts"}, {"measurement": "OLFML1 (NM_198474) expression, Rep 1-3 (Table 4)", "value": "177 counts and 128 counts and 114 counts"}, {"measurement": "PALLD (NM_001166110) expression, Rep 1-3", "value": "1158 counts and 885 counts and 1055 counts"}, {"measurement": "PAQR5 (NM_017705) expression, Rep 1-3", "value": "703 counts and 745 counts and 664 counts"}, {"measurement": "PDE4B (NM_001037339) expression, Rep 1-3", "value": "1160 counts and 1371 counts and 1056 counts"}, {"measurement": "PDE4D (NM_001197221) expression, Rep 1-3", "value": "1130 counts and 1170 counts and 1071 counts"}, {"measurement": "PDE4D (NM_001197222) expression, Rep 1-3", "value": "1417 counts and 2044 counts and 1570 counts"}, {"measurement": "PDE5A (NM_033430) expression, Rep 1-3", "value": "174 counts and 286 counts and 206 counts"}, {"measurement": "PDK4 (NM_002612) expression, Rep 1-3", "value": "1296 counts and 1726 counts and 1173 counts"}, {"measurement": "PITPNC1 (NM_181671) expression, Rep 1-3", "value": "702 counts and 1007 counts and 764 counts"}, {"measurement": "PLIN2 (NM_001122) expression, Rep 1-3", "value": "82301 counts and 124225 counts and 72254 counts"}, {"measurement": "PLOD2 (NM_000935) expression, Rep 1-3", "value": "1169 counts and 1679 counts and 925 counts"}, {"measurement": "PRELP (NM_002725) expression, Rep 1-3", "value": "159 counts and 104 counts and 80 counts"}, {"measurement": "PRKAG2 (NM_024429) expression, Rep 1-3", "value": "7233 counts and 8152 counts and 6080 counts"}, {"measurement": "PTP4A1 (NM_003463) expression, Rep 1-3", "value": "849 counts and 696 counts and 510 counts"}, {"measurement": "RCAN1 (NM_203418) expression, Rep 1-3", "value": "7766 counts and 11997 counts and 6962 counts"}, {"measurement": "RCAN2 (NM_001251974) expression, Rep 1-3", "value": "129 counts and 109 counts and 76 counts"}, {"measurement": "RND3 (NM_005168) expression, Rep 1-3", "value": "48372 counts and 65016 counts and 41881 counts"}, {"measurement": "S100A4 (NM_002961) expression, Rep 1-3", "value": "149 counts and 114 counts and 113 counts"}, {"measurement": "SAT1 (transcript variant 2, non-coding RNA) expression, Rep 1-3", "value": "1141 counts and 1529 counts and 954 counts"}, {"measurement": "SCG2 (NM_003469) expression, Rep 1-3", "value": "1014 counts and 1187 counts and 1069 counts"}, {"measurement": "SEC31A (NM_001077207) expression, Rep 1-3", "value": "737 counts and 887 counts and 573 counts"}, {"measurement": "SIK1 (NM_173354) expression, Rep 1-3", "value": "1144 counts and 1320 counts and 1086 counts"}, {"measurement": "SLC2A12 (NM_145176) expression, Rep 1-3", "value": "110 counts and 114 counts and 92 counts"}, {"measurement": "SLC3A2 (NM_001013251) expression, Rep 1-3", "value": "31831 counts and 39703 counts and 29042 counts"}, {"measurement": "SLC6A15 (NM_182767) expression, Rep 1-3", "value": "1201 counts and 1568 counts and 1062 counts"}]}
